From US10821115B2, “Compounds that inhibit Mcl-1 protein” (priority 2017, dated 2020)
Like-named read-outs stand apart in the source and are kept apart here.

Legend:
[1] = system: human multiple myeloma cell line, OPM-2; assay: Cell viability assay (OPM-2 10 FBS), CellTiter-Glo; type: cell-based
In short: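 OPM-2 cells at 3000 cells/well in RPMI 1640 with 10% FBS were exposed to serially diluted compounds for 16 h at 37 °C, 5% CO2.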

[2] = target: recombinant human Mcl-1 (residues 171-327) / Bim interaction (Homo sapiens (Human), UniProt Q07820); assay: biochemical; type: binding; conditions: read-out: Mcl-1 HTRF IC50
[3] = Homo sapiens, OPM-2, 16 h, read-out: OPM-2 10% FBS IC50 IP, OPM-2 cells, 10% FBS, 16 h, CellTiter-Glo
[4] = TR-FRET, Mcl-1(171-327) / biotin-Bim (51-76)
[5] = read-out: OPM-2 10% FBS IC50 IP, OPM-2 cells, 10% FBS, 16 h, CellTiter-Glo

Chain of recombinant human Mcl-1 (residues 171-327) / Bim interaction (Q07820 171-327): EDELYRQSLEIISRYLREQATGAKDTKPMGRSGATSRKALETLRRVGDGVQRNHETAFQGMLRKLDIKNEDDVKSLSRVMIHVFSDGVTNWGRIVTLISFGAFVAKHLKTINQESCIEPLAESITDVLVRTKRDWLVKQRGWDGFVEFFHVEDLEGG

| Compound | IC50 [1, 3] [nM] | IC50 [2, 4] [nM] | IC50 [1, 5] [nM] | IC50 [2] [nM] |
| --- | --- | --- | --- | --- |
| C[C@@H]1[C@@H](C)CCC[C@](CO)(OCCN2CCOCC2)[C@@H]2CC[C@H]2CN2C[C@@]3(CCCc4cc(Cl)ccc43)COc3ccc(cc32)C(=O)NS1(=O)=O [Example 100280, (1S,3′R,6′R,7′S,11′S,12′R)-6-chloro-7′-(hydroxymethyl)-11′,12′-dimethyl-7′-(2-(4-morpholinyl)ethoxy)-3,4-dihydro-2H,15′H-spiro[naphthalene-1,22′-[20]oxa[13]thia[1,14]diazatetracyclo [14.7.2.0~3,6~.0~19,24~]pentacosa[16,18,24]trien]-15′-one 13′,13′-dioxide] | 305 | 0.368 |  |  |
| C[C@@H]1[C@@H](C)C/C=C/[C@@](O)(CC(=O)N(C)CCN(C)C)[C@@H]2CC[C@H]2CN2C[C@@]3(CCCc4cc(Cl)ccc43)COc3ccc(cc32)C(=O)NS1(=O)=O [Example 100281, 2-((1S,3′R,6′R,7′S,8′E,11′S,12′R)-6-chloro-7′-hydroxy-11′,12′-dimethyl-13′,13′-dioxido-15′-oxo-3,4-dihydro-2H-spiro[naphthalene-1,22′-[20]oxa[13]thia[1,14]diazatetracyclo [14.7.2.0~3,6~.0~19,24~]pentacosa[8,16,18,24]tetraen]-7′-yl)-N-(2-(dimethylamino)ethyl)-N-methylacetamide] |  | 0.117 | 352 |  |
| C[C@@H]1[C@@H](C)C/C=C/[C@@](O)(CC(=O)N(C)CCN(C)C)[C@@H]2CC[C@H]2CN2C[C@@]3(CCCc4cc(Cl)ccc43)COc3ccc(cc32)C(=O)NS1(=O)=O [Example 100282, 2-((1S,3′R,6′R,7′S,8′E,11′S,12′R)-6-chloro-7′-hydroxy-11′,12′-dimethyl-13′,13′-dioxido-15′-oxo-3,4-dihydro-2H-spiro[naphthalene-1,22′-[20]oxa[13]thia[1,14]diazatetracyclo [14.7.2.0~3,6~.0~19,24~]pentacosa[8,16,18,24]tetraen]-7′-yl)-N-(2-(dimethylamino)ethyl)-N-methylacetamide] |  | 0.268 | 1280 |  |
| C[C@@H]1[C@@H](C)CCC[C@@](O)(COS(C)(=O)=O)[C@@H]2CC[C@H]2CN2C[C@@]3(CCCc4cc(Cl)ccc43)COc3ccc(cc32)C(=O)NS1(=O)=O [Example 100283, ((1S,3′R,6′R,7′S,11′S,12′R)-6-chloro-7′-hydroxy-11′,12′-dimethyl-13′,13′-dioxido-15′-oxo-3,4-dihydro-2H-spiro[naphthalene-1,22′-[20]oxa[13]thia[1,14]diazatetracyclo [14.7.2.0~3,6~.0~19,24~]pentacosa[16,18,24]trien]-7′-yl)methyl methanesulfonate] |  |  | 806 | 0.143 |
| C[C@@H]1[C@@H](C)CCC[C@](CO)(OCCN2CCOCC2)[C@@H]2CC[C@H]2CN2C[C@@]3(CCCc4cc(Cl)ccc43)COc3ccc(cc32)C(=O)NS1(=O)=O [Example 100284, (1S,3′R,6′R,7′S,11′S,12′R)-6-chloro-7′-(hydroxymethyl)-11′,12′-dimethyl-7′-(2-(4-morpholinyl)ethoxy)-3,4-dihydro-2H,15′H-spiro[naphthalene-1,22′-[20]oxa[13]thia[1,14]diazatetracyclo [14.7.2.0~3,6~.0~19,24~]pentacosa[16,18,24]trien]-15′-one 13′,13′-dioxide] |  | 0.285 | 396 |  |
| CO[C@@H](C(=O)N(C)C)[C@]1(O)/C=C/C[C@H](C)[C@@H](C)S(=O)(=O)NC(=O)c2ccc3c(c2)N(C[C@@H]2CC[C@H]21)C[C@@]1(CCCc2cc(Cl)ccc21)CO3 [Example 100285, (2R)-2-((1S,3′R,6′R,7′S,8′E,11′S,12′R)-6-chloro-7′-hydroxy-11′,12′-dimethyl-13′,13′-dioxido-15′-oxo-3,4-dihydro-2H-spiro[naphthalene-1,22′-[20]oxa[13]thia[1,14]diazatetracyclo [14.7.2.0~3,6~.0~19,24~]pentacosa[8,16,18,24]tetraen]-7′-yl)-2-methoxy-N,N-dimethylethanamide] | 642 | 0.241 |  |  |
| CO[C@@H](C(=O)N(C)C)[C@@]1(O)/C=C/C[C@H](C)[C@@H](C)S(=O)(=O)NC(=O)c2ccc3c(c2)N(C[C@@H]2CC[C@H]21)C[C@@]1(CCCc2cc(Cl)ccc21)CO3 [Example 100286, (2R)-2-((1S,3′R,6′R,7′R,8′E,11′S,12′R)-6-chloro-7′-hydroxy-11′,12′-dimethyl-13′,13′-dioxido-15′-oxo-3,4-dihydro-2H-spiro[naphthalene-1,22′-[20]oxa[13]thia[1,14]diazatetracyclo [14.7.2.0~3,6~.0~19,24~]pentacosa[8,16,18,24]tetraen]-7′-yl)-2-methoxy-N,N-dimethylethanamide] | 1580 | 0.471 |  |  |
| COC(=O)C[C@@]1(O)/C=C/C[C@H](C)[C@@H](C)S(=O)(=O)NC(=O)c2ccc3c(c2)N(C[C@@H]2CC[C@H]21)C[C@@]1(CCCc2cc(Cl)ccc21)CO3 [Example 100287, methyl ((1S,3′R,6′R,7′R,8′E,11′S,12′R)-6-chloro-7′-hydroxy-11′,12′-dimethyl-13′,13′-dioxido-15′-oxo-3,4-dihydro-2H-spiro[naphthalene-1,22′-[20]oxa[13]thia[1,14]diazatetracyclo [14.7.2.0~3,6~.0~19,24~]pentacosa[8,16,18,24]tetraen]-7′-yl)acetate] | 1870 | 0.494 |  |  |
| COC(=O)C[C@]1(O)/C=C/C[C@H](C)[C@@H](C)S(=O)(=O)NC(=O)c2ccc3c(c2)N(C[C@@H]2CC[C@H]21)C[C@@]1(CCCc2cc(Cl)ccc21)CO3 [Example 100288, methyl ((1S,3′R,6′R,7′S,8′E,11′S,12′R)-6-chloro-7′-hydroxy-11′,12′-dimethyl-13′,13′-dioxido-15′-oxo-3,4-dihydro-2H-spiro[naphthalene-1,22′-[20]oxa[13]thia[1,14]diazatetracyclo [14.7.2.0~3,6~.0~19,24~]pentacosa[8,16,18,24]tetraen]-7′-yl)acetate] | 89 | 0.103 |  |  |
| C[C@@H]1[C@@H](C)C/C=C/[C@@](O)([C@@H](O)C(=O)N(C)C)[C@@H]2CC[C@H]2CN2C[C@@]3(CCCc4cc(Cl)ccc43)COc3ccc(cc32)C(=O)NS1(=O)=O [Example 100289, (2R)-2-((1S,3′R,6′R,7′S,8′E,11′S,12′R)-6-chloro-7′-hydroxy-11′,12′-dimethyl-13′,13′-dioxido-15′-oxo-3,4-dihydro-2H-spiro[naphthalene-1,22′-[20]oxa[13]thia[1,14]diazatetracyclo [14.7.2.0~3,6~.0~19,24~]pentacosa[8,16,18,24]tetraen]-7′-yl)-2-hydroxy-N,N-dimethylethanamide] | 3960 | 0.878 |  |  |
| C[C@@H]1[C@@H](C)C/C=C/[C@](O)([C@H](O)C(=O)N(C)C)[C@@H]2CC[C@H]2CN2C[C@@]3(CCCc4cc(Cl)ccc43)COc3ccc(cc32)C(=O)NS1(=O)=O [Example 100290, (2S)-2-((1S,3′R,6′R,7′R,8′E,11′S,12′R)-6-chloro-7′-hydroxy-11′,12′-dimethyl-13′,13′-dioxido-15′-oxo-3,4-dihydro-2H-spiro[naphthalene-1,22′-[20]oxa[13]thia[1,14]diazatetracyclo [14.7.2.0~3,6~.0~19,24~]pentacosa[8,16,18,24]tetraen]-7′-yl)-2-hydroxy-N,N-dimethylethanamide] | 259 | 0.116 |  |  |
| C[C@@H]1[C@@H](C)C/C=C/[C@@](O)(C=O)[C@@H]2CC[C@H]2CN2C[C@@]3(CCCc4cc(Cl)ccc43)COc3ccc(cc32)C(=O)NS1(=O)=O [Example 100291, (1S,3′R,6′R,7′S,8′E,11′S,12′R)-6-chloro-7′-hydroxy-11′,12′-dimethyl-15′-oxo-3,4-dihydro-2H-spiro[naphthalene-1,22′-[20]oxa[13]thia[1,14]diazatetracyclo [14.7.2.0~3,6~.0~19,24~]pentacosa[8,16,18,24]tetraene]-7′-carbaldehyde 13′,13′-dioxide] | 281 | 0.137 |  |  |
| C[C@@H]1[C@@H](C)C/C=C/[C@](O)(CC(=O)N2CCC2)[C@@H]2CC[C@H]2CN2C[C@@]3(CCCc4cc(Cl)ccc43)COc3ccc(cc32)C(=O)NS1(=O)=O [Example 100292, (1S,3′R,6′R,7′R,8′E,11′S,12′R)-7′-(2-(1-azetidinyl)-2-oxoethyl)-6-chloro-7′-hydroxy-11′,12′-dimethyl-3,4-dihydro-2H,15′H-spiro[naphthalene-1,22′-[20]oxa[13]thia[1,14]diazatetracyclo [14.7.2.0~3,6~.0~19,24~]pentacosa[8,16,18,24]tetraen]-15′-one 13′,13′-dioxide] | 672 | 0.115 |  |  |
| C[C@@H]1[C@@H](C)C/C=C/[C@@](O)(C#CCN(C)C)[C@@H]2CC[C@H]2CN2C[C@@]3(CCCc4cc(Cl)ccc43)COc3ccc(cc32)C(=O)NS1(=O)=O [Example 100294, (1S,3′R,6′R,7′S,8′E,11′S,12′R)-6-chloro-7′-(3-(dimethylamino)-1-propyn-1-yl)-7′-hydroxy-11′,12′-dimethyl-3,4-dihydro-2H,15′H-spiro[naphthalene-1,22′-[20]oxa[13]thia[1,14]diazatetracyclo [14.7.2.0~3,6~.0~19,24~]pentacosa[8,16,18,24]tetraen]-15′-one 13′,13′-dioxide] |  | 0.118 | 116 |  |
| C[C@@H]1[C@@H](C)C/C=C/[C@@](O)(C#CCN(C)C)[C@@H]2CC[C@H]2CN2C[C@@]3(CCCc4cc(Cl)ccc43)COc3ccc(cc32)C(=O)NS1(=O)=O [Example 100295, (1S,3′R,6′R,7′S,8′E,11′S,12′R)-6-chloro-7′-(3-(dimethylamino)-1-propyn-1-yl)-7′-hydroxy-11′,12′-dimethyl-3,4-dihydro-2H,15′H-spiro[naphthalene-1,22′-[20]oxa[13]thia[1,14]diazatetracyclo [14.7.2.0~3,6~.0~19,24~]pentacosa[8,16,18,24]tetraen]-15′-one 13′,13′-dioxide] |  | 0.279 | 302 |  |
